# Test results reported in publication PMC11279465, “Dual Inhibitors of P-gp and Carbonic Anhydrase XII (hCA XII) against Tumor Multidrug Resistance with Piperazine Scaffold” (Molecules, 2024).
# “And” between values parts separate entries of the source, which are not always exact repeats. Equal entries are not always repeated.
# Columns and labels:
# [1] = biological target: T1, hCA I (Homo sapiens, UniProt P00915); experiment: CA inhibition, stopped-flow CO2 hydrase assay; assay type: biochemical; details: stopped-flow technique; incubation time 6 h; mean of 3 assays
# T1 construct: made in house
# T1 sequence (P00915 whole entry): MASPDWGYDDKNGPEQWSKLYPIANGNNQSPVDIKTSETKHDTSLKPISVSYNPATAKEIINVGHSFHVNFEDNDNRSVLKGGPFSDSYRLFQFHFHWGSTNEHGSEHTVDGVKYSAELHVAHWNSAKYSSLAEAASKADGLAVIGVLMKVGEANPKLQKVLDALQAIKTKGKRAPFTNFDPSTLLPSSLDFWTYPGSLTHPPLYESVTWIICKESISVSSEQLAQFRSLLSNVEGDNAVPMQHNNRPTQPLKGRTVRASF
# Experimental: (§1) Four hCA isoforms were used in this assay: the cytosolic hCA I and II and the tumor-associated transmembrane hCA IX and XII isoforms. Acetazolamide (AAZ) was used as a standard inhibitor.
# (§2) An SX.18MV-R Applied Photophysics (Oxford, UK) stopped-flow instrument has been used to assay the catalytic/inhibition of various CA isozymes. […] Saturated CO2 solutions in water at 25 °C were used as substrate. Stock solutions of inhibitors were prepared at a concentration of 10 μM (in DMSO-water 1:1, v/v) and dilutions up to 0.01 nM were carried out with the assay buffer mentioned above. […] Inhibitor and enzyme solutions were preincubated together for 6 h at room temperature prior to assay in order to allow for the formation of the E-I complex. […] The inhibition constants were obtained by non-linear least-squares methods using the Cheng–Prusoff equation, as reported earlier, and represent the mean from at least three different determinations.
# [2] = biological target: T2, hCA II (Homo sapiens, UniProt P00918); experiment: CA inhibition, stopped-flow CO2 hydrase assay; assay type: biochemical; details: stopped-flow technique; incubation time 6 h; mean of 3 assays
# T2 construct: made in house
# Experimental: as §1, §2
# [3] = biological target: T3, hCA IX (Homo sapiens, UniProt Q16790); experiment: CA inhibition, stopped-flow CO2 hydrase assay; assay type: biochemical; details: stopped-flow technique; incubation time 6 h; mean of 3 assays
# T3 construct: made in house
# Experimental: as §1, §2
# [4] = biological target: T4, hCA XII (Homo sapiens, UniProt O43570); experiment: CA inhibition, stopped-flow CO2 hydrase assay; assay type: biochemical; details: stopped-flow technique; incubation time 6 h; mean of 3 assays
# T4 construct: made in house
# T4 sequence (O43570 25-354): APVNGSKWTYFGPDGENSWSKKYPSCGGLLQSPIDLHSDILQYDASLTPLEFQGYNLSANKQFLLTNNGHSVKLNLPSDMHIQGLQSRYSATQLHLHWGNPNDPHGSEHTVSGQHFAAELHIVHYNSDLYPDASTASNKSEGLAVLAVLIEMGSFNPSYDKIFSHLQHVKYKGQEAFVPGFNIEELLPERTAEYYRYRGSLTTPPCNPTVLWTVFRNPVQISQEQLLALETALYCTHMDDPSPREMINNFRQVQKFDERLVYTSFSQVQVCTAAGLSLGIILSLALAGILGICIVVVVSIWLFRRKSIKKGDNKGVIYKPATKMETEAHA
# Experimental: as §1, §2
# [5] = tested on: K562/DOX cells; experiment: Doxorubicin cytotoxicity enhancement assay (MTT); assay type: cell-based, human; details: 72 h
# Experimental: K562 is a highly undifferentiated erythroleukemia cell line. The doxorubicin-resistant K562/DOX cells overexpress almost exclusively the transporter membrane protein P-gp.
# K562/DOX cells were incubated for 72 h with different concentrations of doxorubicin in combination with 1 or 3 µM of all compounds. […] HT29, A549, HT29/DOX and A549/DOX cells were incubated for 48 h with 5 µM doxorubicin, alone or in combination with 1 or 3 µM of selected compounds. Cell viability of the cell lines was measured by the MTT assay, using a Synergy HT microplate spectrofluorometer (Bio-Tek Instruments, Winooski, VT, USA). The absorbance of untreated cells was considered 100%; results were expressed as a percentage of viable treated cells versus the control untreated cells.
# [6] = tested on: A549/DOX cells; experiment: Doxorubicin co-administration assay (MTT); assay type: cell-based, human; details: compound at 3 µM + doxorubicin 5 µM, 48 h
# Experimental: (§3) These compounds were then assayed at 1 and 3 µM concentrations in co-administration with doxorubicin at a concentration of 5 µM, which is known to discriminate well between sensitive and resistant cells. […] Moreover, in the A549/DOX cell line, the co-administration of 1, 2, 4–6, 14 and 19, tested at 3 µM, led to the highest enhancement of doxorubicin toxicity reaching a reduction of nearly 55.0% in cell viability.
# (§4) K562/DOX cells were incubated for 72 h with different concentrations of doxorubicin in combination with 1 or 3 µM of all compounds. IC50 was the concentration killing 50% of cells and was determined graphically from relative survival curves obtained by GraphPad Prism 5 software (GraphPad, San Diego, CA, USA). HT29, A549, HT29/DOX and A549/DOX cells were incubated for 48 h with 5 µM doxorubicin, alone or in combination with 1 or 3 µM of selected compounds. Cell viability of the cell lines was measured by the MTT assay, using a Synergy HT microplate spectrofluorometer (Bio-Tek Instruments, Winooski, VT, USA). The absorbance of untreated cells was considered 100%; results were expressed as a percentage of viable treated cells versus the control untreated cells.
# [7] = tested on: HT29/DOX cells; experiment: Doxorubicin co-administration assay (MTT); assay type: cell-based, human; details: compound at 3 µM + doxorubicin 5 µM, 48 h
# Experimental: as §3, §4
# [8] = tested on: K562/DOX cells; experiment: Intrinsic cytotoxicity (MTT); assay type: cell-based, human; details: compound alone at 3 µM, 72 h
# Experimental: Compounds were first studied at 1 and 3 µM concentrations to evaluate their intrinsic cytotoxicity in both the parental K562 and the resistant K562/DOX cell lines, using the MTT assay. All compounds had no intrinsic cytotoxicity in the parental line.
# (§5) The intrinsic toxicity of the studied compounds was determined by an MTT assay. K562 and K562/DOX were exposed for 72 h with compounds at 1 and 3 µM concentrations while HT29, A549, HT29/DOX and A549/DOX cells were incubated for 48 h with compounds used at different concentrations (from 10 nM to 50 µM). The percentage of growth compared to the untreated control was transformed into histograms with the GraphPad Prism 5 program.
# [9] = tested on: A549/DOX cells; experiment: Intrinsic cytotoxicity (MTT); assay type: cell-based, human; details: compound alone at 1 µM; A549/DOX; 48 h
# Experimental: (§6) All compounds were preliminarily studied to evaluate their intrinsic cytotoxicity at different concentrations (from 10 nM to 50 µM) in the parental HT29 and A549 and the resistant HT29/DOX and A549/DOX cells using the MTT assay.
# as §5, with “program. […]” for “program.”
# [10] = tested on: HT29/DOX cells; experiment: Intrinsic cytotoxicity (MTT); assay type: cell-based, human; details: compound alone at 1 µM; HT29/DOX; 48 h
# Experimental: as §6
# as §5, with “program. […]” for “program.”
# [11] = tested on: A549 cells; experiment: Intrinsic cytotoxicity (MTT); assay type: cell-based, human; details: compound alone at 1 µM; parental A549; 48 h
# Experimental: as §6, §5
# [12] = tested on: HT29 cells; experiment: Intrinsic cytotoxicity (MTT); assay type: cell-based, human; details: compound alone at 1 µM; parental HT29; 48 h
# Experimental: as §6, §5
structure (smiles),measurement,setting,value
"COc1cc(/C=C/CN2CCN(CCOc3ccc4ccc(=O)oc4c3)CC2)cc(OC)c1OC [Compound 1, (E)-7-(2-(4-(3-(3,4,5-Trimethoxyphenyl)allyl)piperazin-1-yl)ethoxy)-2H-chromen-2-one]",Ki,[1],> 10000 nM
same,Ki,[2],> 10000 nM
same,Ki,[3],51.3 nM
same,Ki,[4],13 nM
same,RF (Reversal Fold: IC50 of doxorubicin alone / in presence of modulator),[5]; compound at 1 µM,1.6
same,RF (Reversal Fold: IC50 of doxorubicin alone / in presence of modulator),[5]; compound at 3 µM,2.3
same,reduction in cell viability,[6],~55.0%
"COc1cc(/C=C/CN2CCN(CCCOc3ccc4ccc(=O)oc4c3)CC2)cc(OC)c1OC [Compound 2, (E)-7-(3-(4-(3-(3,4,5-Trimethoxyphenyl)allyl)piperazin-1-yl)propoxy)-2H-chromen-2-one]",Ki,[1],> 10000 nM
same,Ki,[2],> 10000 nM
same,Ki,[3],62.6 nM
same,Ki,[4],29.4 nM
same,RF (Reversal Fold: IC50 of doxorubicin alone / in presence of modulator),[5]; compound at 1 µM,3.8
same,RF (Reversal Fold: IC50 of doxorubicin alone / in presence of modulator),[5]; compound at 3 µM,4.5
same,reduction in cell viability,[6],~55.0%
"COc1cc(/C=C/CN2CCN(CCOc3ccc4c(C)cc(=O)oc4c3)CC2)cc(OC)c1OC [Compound 4, (E)-4-Methyl-7-(2-(4-(3-(3,4,5-trimethoxyphenyl)allyl)piperazin-1-yl)ethoxy)-2H-chromen-2-one]",Ki,[1],> 10000 nM
same,Ki,[2],> 10000 nM
same,Ki,[3],25.2 nM
same,Ki,[4],32.8 nM
same,RF (Reversal Fold: IC50 of doxorubicin alone / in presence of modulator),[5]; compound at 1 µM,5.7
same,RF (Reversal Fold: IC50 of doxorubicin alone / in presence of modulator),[5]; compound at 3 µM,15.8
same,reduction in cell viability,[7],65.0%
"COc1cc(/C=C/CN2CCN(CCCOc3ccc4c(C)cc(=O)oc4c3)CC2)cc(OC)c1OC [Compound 5, (E)-4-Methyl-7-(3-(4-(3-(3,4,5-trimethoxyphenyl)allyl)piperazin-1-yl)propoxy)-2H-chromen-2-one]",Ki,[1],> 10000 nM
same,Ki,[2],> 10000 nM
same,Ki,[3],34.7 nM
same,Ki,[4],27.2 nM
same,RF (Reversal Fold: IC50 of doxorubicin alone / in presence of modulator),[5]; compound at 1 µM,5.5
same,RF (Reversal Fold: IC50 of doxorubicin alone / in presence of modulator),[5]; compound at 3 µM,27.6
same,reduction in cell viability,[7],65.0%
"COc1cc(/C=C/CN2CCN(CCOc3ccc4oc(=O)ccc4c3)CC2)cc(OC)c1OC [Compound 7, (E)-6-(2-(4-(3-(3,4,5-Trimethoxyphenyl)allyl)piperazin-1-yl)ethoxy)-2H-chromen-2-one]",Ki,[1],> 10000 nM
same,Ki,[2],> 10000 nM
same,Ki,[3],51 nM
same,Ki,[4],29.5 nM
same,RF (Reversal Fold: IC50 of doxorubicin alone / in presence of modulator),[5]; compound at 1 µM,1 and 1.1
same,RF (Reversal Fold: IC50 of doxorubicin alone / in presence of modulator),[5]; compound at 3 µM,1
same,reduction of cellular viability,[8],30–50%
"COc1cc(/C=C/CN2CCN(CCCOc3ccc4oc(=O)ccc4c3)CC2)cc(OC)c1OC [Compound 8, (E)-6-(3-(4-(3-(3,4,5-Trimethoxyphenyl)allyl)piperazin-1-yl)propoxy)-2H-chromen-2-one]",Ki,[1],> 10000 nM
same,Ki,[2],> 10000 nM
same,Ki,[3],40.7 nM
same,Ki,[4],22.9 nM
same,RF (Reversal Fold: IC50 of doxorubicin alone / in presence of modulator),[5]; compound at 1 µM,2.0
same,RF (Reversal Fold: IC50 of doxorubicin alone / in presence of modulator),[5]; compound at 3 µM,2.0
same,toxicity,[9],≥ 35%
same,toxicity,[10],≥ 35%
"COc1cc(/C=C/CN2CCN(CCCCOc3ccc4oc(=O)cc(C)c4c3)CC2)cc(OC)c1OC [Compound 12, (E)-4-Methyl-6-(4-(4-(3-(3,4,5-trimethoxyphenyl)allyl)piperazin-1-yl)butoxy)-2H-chromen-2-one]",Ki,[1],> 10000 nM
same,Ki,[2],> 10000 nM
same,Ki,[3],104 nM
same,Ki,[4],140 nM
same,RF (Reversal Fold: IC50 of doxorubicin alone / in presence of modulator),[5]; compound at 1 µM,1.9
same,RF (Reversal Fold: IC50 of doxorubicin alone / in presence of modulator),[5]; compound at 3 µM,2.7
same,toxicity,[11],≥ 35%
same,toxicity,[12],≥ 35%
same,toxicity,[9],≥ 35%
same,toxicity,[10],≥ 35%
"COc1cc(CN2CCN(CCCOc3ccc4ccc(=O)oc4c3)CC2)cc(OC)c1OC [Compound 14, 7-(3-(4-(3,4,5-Trimethoxybenzyl)piperazin-1-yl)propoxy)-2H-chromen-2-one]",Ki,[1],> 10000 nM
same,Ki,[2],> 10000 nM
same,Ki,[3],40.1 nM
same,Ki,[4],13.6 nM
same,RF (Reversal Fold: IC50 of doxorubicin alone / in presence of modulator),[5]; compound at 1 µM,1.0
same,RF (Reversal Fold: IC50 of doxorubicin alone / in presence of modulator),[5]; compound at 3 µM,3.4
same,reduction in cell viability,[6],~55.0%
same,reduction in cell viability,[7],65.0%
"COc1cc(CN2CCN(CCCCOc3ccc4ccc(=O)oc4c3)CC2)cc(OC)c1OC [Compound 15, 7-(4-(4-(3,4,5-Trimethoxybenzyl)piperazin-1-yl)butoxy)-2H-chromen-2-one]",Ki,[1],> 10000 nM
same,Ki,[2],> 10000 nM
same,Ki,[3],29 nM
same,Ki,[4],42.9 nM
same,RF (Reversal Fold: IC50 of doxorubicin alone / in presence of modulator),[5]; compound at 1 µM,1.2
same,RF (Reversal Fold: IC50 of doxorubicin alone / in presence of modulator),[5]; compound at 3 µM,2.3
same,toxicity,[9],≥ 35%
same,toxicity,[10],≥ 35%
"COc1cc(CN2CCN(CCOc3ccc4oc(=O)ccc4c3)CC2)cc(OC)c1OC [Compound 19, 6-(2-(4-(3,4,5-Trimethoxybenzyl)piperazin-1-yl)ethoxy)-2H-chromen-2-one]",Ki,[1],> 10000 nM
same,Ki,[2],> 10000 nM
same,Ki,[3],84.7 nM
same,Ki,[4],5.8 nM
same,RF (Reversal Fold: IC50 of doxorubicin alone / in presence of modulator),[5]; compound at 1 µM,1.4
same,RF (Reversal Fold: IC50 of doxorubicin alone / in presence of modulator),[5]; compound at 3 µM,2.2
same,reduction in cell viability,[6],~55.0%
same,reduction in cell viability,[7],65.0%
"COc1ccc(C(CCCN2CCN(CCCOc3ccc4c(C)cc(=O)oc4c3)CC2)c2ccc(OC)cc2)cc1 [Compound 29, 7-(3-(4-(4,4-Bis(4-methoxyphenyl)butyl)piperazin-1-yl)propoxy)-4-methyl-2H-chromen-2-one]",Ki,[1],> 10000 nM
same,Ki,[2],> 10000 nM
same,Ki,[3],149 nM
same,Ki,[4],91.5 nM
same,toxicity,[11],≥ 35%
same,toxicity,[12],≥ 35%
same,toxicity,[9],≥ 35%
same,toxicity,[10],≥ 35%
"COc1ccc(C(CCCN2CCN(CCCOc3ccc4oc(=O)cc(C)c4c3)CC2)c2ccc(OC)cc2)cc1 [Compound 35, 6-(3-(4-(4,4-Bis(4-methoxyphenyl)butyl)piperazin-1-yl)propoxy)-4-methyl-2H-chromen-2-one]",Ki,[1],> 10000 nM
same,Ki,[2],> 10000 nM
same,Ki,[3],523 nM
same,Ki,[4],335 nM
same,RF (Reversal Fold: IC50 of doxorubicin alone / in presence of modulator),[5]; compound at 3 µM,14.3
same,toxicity,[11],≥ 35%
same,toxicity,[12],≥ 35%
same,toxicity,[9],≥ 35%
same,toxicity,[10],≥ 35%
"COc1ccc(C(CCCN2CCN(CCCCOc3ccc4oc(=O)cc(C)c4c3)CC2)c2ccc(OC)cc2)cc1 [Compound 36, 6-(4-(4-(4,4-Bis(4-methoxyphenyl)butyl)piperazin-1-yl)butoxy)-4-methyl-2H-chromen-2-one]",Ki,[1],> 10000 nM
same,Ki,[2],> 10000 nM
same,Ki,[3],332 nM
same,Ki,[4],298 nM
same,toxicity,[11],≥ 35%
same,toxicity,[12],≥ 35%
same,toxicity,[9],≥ 35%
same,toxicity,[10],≥ 35%
